Assays:
[1] = tested on: sciatic nerve unmyelinated axons; experiment: EM count of mitochondria in unmyelinated sciatic nerve axons after nerve injection; type: in vivo, rat; settings: 2 μl of 1.5 mM, EM 2 h after injection, vs vehicle
Procedure: To determine if TubA might also affect axonal mitochondria in vivo, we directly injected TubA into the sciatic nerve of adult rats at mid-thigh. […] As this could reflect stalling of mitochondria or increased numbers of anterogradely and/or retrogradely moving mitochondria, we performed in vivo imaging to visualize mitochondrial dynamics.
For in vivo inhibition of HDAC6, the sciatic nerve of anesthetized adult rats was injected twice at mid-thigh level with 2 μl of 1.5 mM TubA on the right and 2 μl of DMSO (vehicle control) on the left (isofluorane inhalation was used for anesthesia). Nerve injection sites were separated by 2 mm. […]
Vesicle trafficking was quantified using differential ImageJ Difference Tracker Plug-in (Andrews et al., 2010). 50-80-μm long unbranched axon segments at approximately the mid-region between growth cone and cell body were analyzed. […] The distance between the growth tip at end of the post-CALI sequence and the pre-CALI baseline was measured using LAS-X software. Movement of ≥0.5 μm toward the axon shaft was counted as retracted. Fluorescence emission of the Mito-KR post-CALI was analyzed using ImageJ. […] For axon shaft FRAP analyses, each 50-μm bleached ROI was divided into […], and the fluorescence intensity recovery was measured as described above. […] A minimum of 75 unmyelinated axons was analyzed for each nerve. […]

[2] = tested on: growth cones of DRG neurons; experiment: Growth cone retraction after bath-applied growth inhibitors; type: cell-based, rat; settings: 10 μM TubA
Description: MAG and CSPGs are more often tested as surface-bound substrates than with the bath applications used here. Thus, we tested whether bath application of growth inhibitors would cause growth cone retraction in a manner similar to surface-bound inhibitors. […] RhoA activation is a well-known downstream mediator for the growth-inhibitory effects of both MAG and CSPGs (Fujita and Yamashita, 2014), so we tested whether the RhoA/ROCK pathway contributes to the impact of aggregan on mitochondria distribution in growth cones.
MAG or Aggrecan exposures were performed as bath application or on coated substrates. For bath application, dissociated DRGs were cultured for 48 h and treated with 25 μg/ml of MAG-Fc (R&D Systems; 538-MG), 25 μg/ml Fc control (R&D Systems; 110-HG), or 10 μg/ml of Aggrecan (Sigma-Aldrich; A1960) for 4 h. Cultures were pretreated with either Ca^2+ chelator BAPTA-AM (3 μM; Sigma-Aldrich; A1076), ROCK inhibitor Y27632 (10 μM; Sigma-Aldrich; SCM075), HDAC6 inhibitor TubA (10 μM; R&D Systems; 6270), Thapsigargin (1 μM; Sigma-Aldrich; T9033), Rho Activator II (1 μg/ml; Cytoskeleton; CNO3), or equivalent volume DMSO 30 min before MAG-Fc, Aggrecan, or controls. For substrate-bound experiments, adult DRGs were cultured on glass bottom dishes (Greiner) that were coated with 25 μg/ml Aggrecan in addition to the laminin/poly-D-lysine substrate.

CN1CCc2c(c3ccccc3n2Cc2ccc(C(=O)NO)cc2)C1 [TubA, tubastatin]
mitochondrial numbers in unmyelinated axons [1]: significantly increased mitochondrial numbers
effect on aggrecan-induced growth cone retraction [2]: prevented by application of TubA

Reference: US20210330756A1, “Acetylation of Miro1” (University of South Carolina, priority 2020, published 2021)
